Legend:
[1] = system: human monocytes; assay: GM-CSF-induced TNF-α production from monocytes (ELISA); settings: Monocyte, read-out: IC50, GM-CSF enhancement of TNF-α production upon LPS stimulation in monocytes
Protocol: The cells were then cultured with 0.1 ng/mL lipopolysaccharide (LPS) for an additional 6 h at 37 °C. The supernatants were collected, and secretion of TNF-α was measured by ELISA.

[2] = target: T1, CHK1 (Homo sapiens, UniProt O14757); assay: KinaseProfiler selectivity: CHK1; type: biochemical
T1 construct: purchased Millipore Co. Ltd. (KinaseProfiler service)
Protocol: (§1) […]; The selectivity of JTE-052 for other kinases was assessed using KinaseProfiler™ (Millipore Co. Ltd.). […].

[3] = target: T2, cSRC (Homo sapiens, UniProt P12931); assay: KinaseProfiler selectivity: cSRC; type: biochemical
T2 construct: purchased Millipore Co. Ltd. (KinaseProfiler service)
Protocol: as §1

[4] = target: T3, CDK2/cyclinA (Homo sapiens, UniProt P24941); assay: KinaseProfiler selectivity: CDK2/cyclinA; type: biochemical
T3 construct: purchased Millipore Co. Ltd. (KinaseProfiler service)
Protocol: as §1

[5] = target: T4, CK2 (Homo sapiens, UniProt P68400); assay: KinaseProfiler selectivity: CK2; type: biochemical
T4 construct: purchased Millipore Co. Ltd. (KinaseProfiler service)
T4 sequence (P68400 whole entry): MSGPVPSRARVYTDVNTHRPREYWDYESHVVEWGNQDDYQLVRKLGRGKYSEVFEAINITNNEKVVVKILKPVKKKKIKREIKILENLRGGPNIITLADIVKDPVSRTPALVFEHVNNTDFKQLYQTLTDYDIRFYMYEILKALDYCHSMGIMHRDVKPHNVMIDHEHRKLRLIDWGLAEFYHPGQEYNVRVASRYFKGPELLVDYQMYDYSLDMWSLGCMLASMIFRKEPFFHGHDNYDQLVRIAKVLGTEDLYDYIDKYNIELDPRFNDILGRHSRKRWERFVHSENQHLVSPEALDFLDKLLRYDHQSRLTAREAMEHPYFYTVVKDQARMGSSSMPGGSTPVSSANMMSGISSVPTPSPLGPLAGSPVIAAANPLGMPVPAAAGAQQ
T4 sequence (P67870 whole entry partner): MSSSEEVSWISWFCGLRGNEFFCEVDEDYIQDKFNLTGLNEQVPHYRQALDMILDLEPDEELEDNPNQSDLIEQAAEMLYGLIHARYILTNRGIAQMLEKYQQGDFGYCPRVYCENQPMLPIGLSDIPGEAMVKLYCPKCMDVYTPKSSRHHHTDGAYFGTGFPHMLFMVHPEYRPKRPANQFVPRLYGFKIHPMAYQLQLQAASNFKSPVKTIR
Protocol: as §1

[6] = target: T5, IR (Homo sapiens, UniProt P06213); assay: KinaseProfiler selectivity: IR; type: biochemical
T5 construct: purchased Millipore Co. Ltd. (KinaseProfiler service)
Protocol: as §1

[7] = system: rat collagen-induced arthritis model; assay: Collagen-induced arthritis in rats; type: in vivo, Lewis rats
Protocol: CIA was induced in rats as previously described with some modifications. Briefly, type II collagen (Collagen Research Center, Saitama, Japan) was dissolved in 0.01 M acetic acid at 2 mg/mL, and the solution was emulsified in an equal volume of Freund’s incomplete adjuvant (Difco Laboratories, Detroit, MI). Lewis rats were immunized with 1 mL of the emulsion (1 mg of type II collagen) via ten intradermal injections on the back under anesthesia. The rats were then challenged with 0.2 mL of the emulsion injected into the base of the tail on day 8 under anesthesia. The test drugs were given orally once daily from day 1 to day 21 (preventive administration) or from day 15 to day 28 (therapeutic administration). After arthritis induction, the hind paw volume was measured by a water displacement method using a plethysmometer (Muromachi Kikai Co. Ltd., Tokyo, Japan). On day 22 or day 29, the rats were euthanized, and their hind paws were excised and X-rayed or processed for histological evaluation. Radiographs of the right hindlimbs were taken using a microfocal cone-beam X-ray CT scanner (MCT-CB100MF; Hitachi Medical Corporation, Tokyo, Japan). The severity of bone destruction was scored on a 3-point scale ranging from 0 to 2 for the following five joints: second metatarsal—second intertarsal joint, third metatarsal—third intertarsal joint, talus—central intertarsal joint, calcaneus—fourth intertarsal joint, and astragalo—tibial joint. For histological analysis, the formalin-fixed left hindlimbs were sectioned and stained with hematoxylin and eosin. The histology of the tarsal joints was evaluated by assessing the following parameters defined in the preliminary examination: inflammatory cell infiltration, synovial cell hyperplasia, cartilage destruction, and bone destruction. The severity of each histological change was scored on a 5-point scale ranging from 0 to 4. (Score 0: normal; Score 1: minimal, solitary (and very small) lesion; Score 2: slight, focal (and small) lesion; Score 3: moderate, scattered lesion; and Score 4: severe, extensive lesion).
(§2) . The hind paw volume (a) and body weight (b) were measured periodically. Images of hematoxylin and eosin staining (c) and radiographs of hindlimbs (e) are shown. Histological change (d) and radiographical change (f) were scored. The results are expressed as mean ± SD. ^# p < 0.05, ^## p < 0.01, versus vehicle by the Steel test
as §2, with “SD. *p < 0.05, **p < 0.01, versus vehicle by Dunnett’s test.” for “SD.”

[8] = target: T6, SAPK3 (Homo sapiens, UniProt P53778); assay: KinaseProfiler selectivity: SAPK3; type: biochemical
T6 construct: purchased Millipore Co. Ltd. (KinaseProfiler service)
T6 sequence (P53778 whole entry, species assumed): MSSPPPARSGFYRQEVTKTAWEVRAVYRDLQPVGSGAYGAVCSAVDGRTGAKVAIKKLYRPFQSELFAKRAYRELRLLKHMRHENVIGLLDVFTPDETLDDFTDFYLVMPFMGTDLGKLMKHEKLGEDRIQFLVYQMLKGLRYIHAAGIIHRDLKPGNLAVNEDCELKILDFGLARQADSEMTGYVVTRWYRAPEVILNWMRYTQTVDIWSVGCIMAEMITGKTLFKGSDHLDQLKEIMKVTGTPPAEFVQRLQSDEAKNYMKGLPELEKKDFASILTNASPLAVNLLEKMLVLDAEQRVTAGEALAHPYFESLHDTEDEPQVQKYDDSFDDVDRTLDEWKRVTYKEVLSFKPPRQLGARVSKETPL
Protocol: as §1

[9] = target: T7, MAPKAP-K2 (Homo sapiens, UniProt P49137); assay: KinaseProfiler selectivity: MAPKAP-K2; type: biochemical
T7 construct: purchased Millipore Co. Ltd. (KinaseProfiler service)
Protocol: as §1

[10] = target: T8, Lyn (Homo sapiens, UniProt P07948); assay: KinaseProfiler selectivity: Lyn; type: biochemical
T8 construct: purchased Millipore Co. Ltd. (KinaseProfiler service)
T8 sequence (P07948 whole entry, species assumed): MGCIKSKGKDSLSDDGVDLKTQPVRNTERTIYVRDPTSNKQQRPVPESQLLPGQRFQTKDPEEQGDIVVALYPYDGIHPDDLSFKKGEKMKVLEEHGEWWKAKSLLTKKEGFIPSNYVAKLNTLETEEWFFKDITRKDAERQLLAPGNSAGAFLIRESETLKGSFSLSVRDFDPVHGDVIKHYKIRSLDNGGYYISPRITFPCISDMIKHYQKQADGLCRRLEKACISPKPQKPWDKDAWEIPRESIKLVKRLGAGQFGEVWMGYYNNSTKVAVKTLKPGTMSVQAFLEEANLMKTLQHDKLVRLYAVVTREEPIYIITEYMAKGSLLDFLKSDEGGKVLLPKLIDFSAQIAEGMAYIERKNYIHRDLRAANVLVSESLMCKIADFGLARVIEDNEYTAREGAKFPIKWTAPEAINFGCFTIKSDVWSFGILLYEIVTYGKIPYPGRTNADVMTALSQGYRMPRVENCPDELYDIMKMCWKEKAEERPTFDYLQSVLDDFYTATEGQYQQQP
Protocol: as §1

[11] = target: T9, IGF-1R (Homo sapiens, UniProt P08069); assay: KinaseProfiler selectivity: IGF-1R; type: biochemical
T9 construct: purchased Millipore Co. Ltd. (KinaseProfiler service)
Protocol: as §1

[12] = target: T10, Abl (Homo sapiens, UniProt P00519); assay: KinaseProfiler selectivity: Abl; type: biochemical
T10 construct: purchased Millipore Co. Ltd. (KinaseProfiler service)
Protocol: as §1

[13] = target: T11, PDK1 (Homo sapiens, UniProt O15530); assay: KinaseProfiler selectivity: PDK1; type: biochemical
T11 construct: purchased Millipore Co. Ltd. (KinaseProfiler service)
Protocol: as §1

[14] = target: T12, Lck (Homo sapiens, UniProt P06239); assay: KinaseProfiler selectivity: Lck; type: biochemical
T12 construct: purchased Millipore Co. Ltd. (KinaseProfiler service)
Protocol: as §1

[15] = target: T13, PDGFRα (Homo sapiens, UniProt P16234); assay: KinaseProfiler selectivity: PDGFRα; type: biochemical
T13 construct: purchased Millipore Co. Ltd. (KinaseProfiler service)
T13 sequence (P16234 24-1089, species assumed): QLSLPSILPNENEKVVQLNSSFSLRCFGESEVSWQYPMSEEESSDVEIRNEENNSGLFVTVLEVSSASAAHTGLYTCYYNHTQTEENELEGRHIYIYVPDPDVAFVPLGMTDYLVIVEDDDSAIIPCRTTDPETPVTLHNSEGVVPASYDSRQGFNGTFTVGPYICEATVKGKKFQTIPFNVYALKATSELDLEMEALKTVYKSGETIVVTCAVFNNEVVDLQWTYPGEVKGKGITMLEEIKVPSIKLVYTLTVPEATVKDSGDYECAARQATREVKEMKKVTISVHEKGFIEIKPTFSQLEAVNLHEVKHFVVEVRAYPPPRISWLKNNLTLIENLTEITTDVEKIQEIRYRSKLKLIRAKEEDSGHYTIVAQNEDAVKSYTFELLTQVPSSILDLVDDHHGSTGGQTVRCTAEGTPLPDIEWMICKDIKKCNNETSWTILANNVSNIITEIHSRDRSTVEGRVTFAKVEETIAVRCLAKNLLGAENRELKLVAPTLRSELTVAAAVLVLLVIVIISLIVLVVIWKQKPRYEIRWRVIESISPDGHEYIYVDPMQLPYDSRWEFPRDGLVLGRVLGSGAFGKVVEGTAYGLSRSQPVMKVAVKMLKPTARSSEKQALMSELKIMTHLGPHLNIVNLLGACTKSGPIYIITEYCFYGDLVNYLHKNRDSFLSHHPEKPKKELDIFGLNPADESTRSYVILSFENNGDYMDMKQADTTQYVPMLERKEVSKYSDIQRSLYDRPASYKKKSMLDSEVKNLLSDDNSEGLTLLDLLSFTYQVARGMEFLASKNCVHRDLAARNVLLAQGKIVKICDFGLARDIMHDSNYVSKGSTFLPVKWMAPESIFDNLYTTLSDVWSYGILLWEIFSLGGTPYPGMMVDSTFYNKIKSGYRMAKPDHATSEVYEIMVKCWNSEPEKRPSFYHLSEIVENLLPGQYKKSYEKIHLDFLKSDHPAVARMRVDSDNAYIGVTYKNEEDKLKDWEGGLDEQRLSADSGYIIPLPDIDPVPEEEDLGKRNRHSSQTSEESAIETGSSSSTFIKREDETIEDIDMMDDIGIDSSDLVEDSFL
Protocol: as §1

[16] = target: T14, Met (Homo sapiens, UniProt P08581); assay: KinaseProfiler selectivity: Met; type: biochemical
T14 construct: purchased Millipore Co. Ltd. (KinaseProfiler service)
Protocol: as §1

[17] = target: T15, Flt1 (Homo sapiens, UniProt P17948); assay: KinaseProfiler selectivity: Flt1; type: biochemical
T15 construct: purchased Millipore Co. Ltd. (KinaseProfiler service)
Protocol: as §1

[18] = target: T16, CSK (Homo sapiens, UniProt P41240); assay: KinaseProfiler selectivity: CSK; type: biochemical
T16 construct: purchased Millipore Co. Ltd. (KinaseProfiler service)
Protocol: as §1

[19] = target: T17, Fyn (Homo sapiens, UniProt P06241); assay: KinaseProfiler selectivity: Fyn; type: biochemical
T17 construct: purchased Millipore Co. Ltd. (KinaseProfiler service)
Protocol: as §1

[20] = target: T18, Plk1 (Homo sapiens, UniProt P53350); assay: KinaseProfiler selectivity: Plk1; type: biochemical
T18 construct: purchased Millipore Co. Ltd. (KinaseProfiler service)
Protocol: as §1

[21] = target: T19, FGFR1 (Homo sapiens, UniProt P11362); assay: KinaseProfiler selectivity: FGFR1; type: biochemical
T19 construct: purchased Millipore Co. Ltd. (KinaseProfiler service)
Protocol: as §1

[22] = target: T20, PDGFRβ (Homo sapiens, UniProt P09619); assay: KinaseProfiler selectivity: PDGFRβ; type: biochemical
T20 construct: purchased Millipore Co. Ltd. (KinaseProfiler service)
Protocol: as §1

[23] = target: T21, c-RAF (Homo sapiens, UniProt P04049); assay: KinaseProfiler selectivity: c-RAF; type: biochemical
T21 construct: purchased Millipore Co. Ltd. (KinaseProfiler service)
T21 sequence (P04049 whole entry, species assumed): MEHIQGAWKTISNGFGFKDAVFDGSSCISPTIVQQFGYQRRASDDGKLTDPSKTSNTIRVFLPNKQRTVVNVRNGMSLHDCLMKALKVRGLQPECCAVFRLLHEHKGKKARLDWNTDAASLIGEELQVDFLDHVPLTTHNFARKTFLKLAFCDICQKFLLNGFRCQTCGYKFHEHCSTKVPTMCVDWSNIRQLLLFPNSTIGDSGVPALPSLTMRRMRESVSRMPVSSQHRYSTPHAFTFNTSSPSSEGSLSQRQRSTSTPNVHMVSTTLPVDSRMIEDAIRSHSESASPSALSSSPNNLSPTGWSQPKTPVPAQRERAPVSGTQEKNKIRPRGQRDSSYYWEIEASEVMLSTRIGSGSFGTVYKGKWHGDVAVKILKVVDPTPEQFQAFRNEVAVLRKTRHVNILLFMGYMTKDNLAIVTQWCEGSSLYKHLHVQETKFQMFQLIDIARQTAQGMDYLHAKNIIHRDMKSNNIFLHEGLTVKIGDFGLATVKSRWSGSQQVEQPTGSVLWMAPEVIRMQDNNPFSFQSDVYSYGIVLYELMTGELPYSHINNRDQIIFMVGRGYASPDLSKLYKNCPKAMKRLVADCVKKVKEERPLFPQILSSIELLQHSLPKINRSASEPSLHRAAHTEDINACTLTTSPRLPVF
Protocol: as §1

[24] = target: T22, SAPK2b (Homo sapiens, UniProt Q15759); assay: KinaseProfiler selectivity: SAPK2b; type: biochemical
T22 construct: purchased Millipore Co. Ltd. (KinaseProfiler service)
Protocol: as §1

[25] = target: T23, CDK1/cyclinB (Homo sapiens, UniProt P06493); assay: KinaseProfiler selectivity: CDK1/cyclinB; type: biochemical
T23 construct: purchased Millipore Co. Ltd. (KinaseProfiler service)
T23 sequence (P06493 whole entry, species assumed): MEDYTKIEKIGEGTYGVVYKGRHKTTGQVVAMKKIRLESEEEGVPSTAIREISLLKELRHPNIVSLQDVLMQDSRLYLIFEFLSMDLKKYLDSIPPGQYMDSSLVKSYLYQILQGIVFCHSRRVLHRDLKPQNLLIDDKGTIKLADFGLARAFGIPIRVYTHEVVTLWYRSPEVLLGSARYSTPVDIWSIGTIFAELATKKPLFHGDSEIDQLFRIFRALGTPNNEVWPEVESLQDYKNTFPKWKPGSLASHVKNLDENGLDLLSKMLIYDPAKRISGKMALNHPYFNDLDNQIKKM
T23 sequence (P14635 whole entry partner, species assumed): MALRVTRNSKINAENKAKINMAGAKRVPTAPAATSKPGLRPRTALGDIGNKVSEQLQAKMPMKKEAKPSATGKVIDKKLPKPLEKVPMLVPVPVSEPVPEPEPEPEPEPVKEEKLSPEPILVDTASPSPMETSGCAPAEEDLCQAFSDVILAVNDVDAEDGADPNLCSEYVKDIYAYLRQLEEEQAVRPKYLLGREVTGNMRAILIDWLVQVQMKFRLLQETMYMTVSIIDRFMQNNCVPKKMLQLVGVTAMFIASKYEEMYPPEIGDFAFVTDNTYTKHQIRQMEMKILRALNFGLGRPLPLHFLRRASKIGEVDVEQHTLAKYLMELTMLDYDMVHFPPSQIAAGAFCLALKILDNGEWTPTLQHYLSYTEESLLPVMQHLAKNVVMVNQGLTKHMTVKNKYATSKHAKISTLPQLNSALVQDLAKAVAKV
Protocol: as §1

[26] = target: T24, MEK1 (Homo sapiens, UniProt Q02750); assay: KinaseProfiler selectivity: MEK1; type: biochemical
T24 construct: purchased Millipore Co. Ltd. (KinaseProfiler service)
T24 sequence (Q02750 whole entry, species assumed): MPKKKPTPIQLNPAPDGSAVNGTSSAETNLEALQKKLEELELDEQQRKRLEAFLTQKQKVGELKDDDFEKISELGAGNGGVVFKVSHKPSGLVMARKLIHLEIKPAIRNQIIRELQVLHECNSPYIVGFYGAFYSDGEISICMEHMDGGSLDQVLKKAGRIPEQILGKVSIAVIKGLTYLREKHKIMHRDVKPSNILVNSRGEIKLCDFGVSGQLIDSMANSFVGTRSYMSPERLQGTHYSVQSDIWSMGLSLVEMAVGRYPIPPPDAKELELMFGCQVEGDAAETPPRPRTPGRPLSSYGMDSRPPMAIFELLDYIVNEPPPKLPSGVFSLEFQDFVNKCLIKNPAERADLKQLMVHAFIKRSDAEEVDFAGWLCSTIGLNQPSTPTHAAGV
Protocol: as §1

[27] = target: T25, PKA (Homo sapiens, UniProt P17612); assay: KinaseProfiler selectivity: PKA; type: biochemical
T25 construct: purchased Millipore Co. Ltd. (KinaseProfiler service)
Protocol: as §1

[28] = target: T26, PKBα (Homo sapiens, UniProt P31749); assay: KinaseProfiler selectivity: PKBα; type: biochemical
T26 construct: purchased Millipore Co. Ltd. (KinaseProfiler service)
Protocol: as §1

T1 sequence (O14757 whole entry, species assumed): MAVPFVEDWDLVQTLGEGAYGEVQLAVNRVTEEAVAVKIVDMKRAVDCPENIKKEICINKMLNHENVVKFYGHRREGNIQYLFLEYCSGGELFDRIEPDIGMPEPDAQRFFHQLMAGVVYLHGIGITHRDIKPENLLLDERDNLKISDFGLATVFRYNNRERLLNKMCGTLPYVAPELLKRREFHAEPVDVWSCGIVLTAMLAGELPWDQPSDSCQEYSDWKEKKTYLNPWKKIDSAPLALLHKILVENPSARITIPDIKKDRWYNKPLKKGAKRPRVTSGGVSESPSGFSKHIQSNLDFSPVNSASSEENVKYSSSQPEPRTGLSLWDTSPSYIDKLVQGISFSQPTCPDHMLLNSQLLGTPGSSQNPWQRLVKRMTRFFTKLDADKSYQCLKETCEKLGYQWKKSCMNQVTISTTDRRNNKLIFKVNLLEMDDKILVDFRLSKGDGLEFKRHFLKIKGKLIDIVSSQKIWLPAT

C[C@H]1CN(C(=O)CC#N)[C@]12CCN(c1ncnc3[nH]ccc13)C2 [JTE-052]
IC50 [1]: 277 ± 146 nM
IC50 [2]: > 1000 nM
IC50 [3]: > 1000 nM
IC50 [4]: > 1000 nM
IC50 [5]: > 1000 nM
IC50 [6]: > 1000 nM
effect on bone and cartilage destruction (radiographic, histological), preventive administration ([7]; oral once daily from day 1): inhibited radiographic and histological changes of bone destruction and cartilage destruction
effect on hind paw swelling and joint inflammation, preventive administration ([7]; oral once daily from day 1, JTE-052 0.1, 1, 10 mg/kg, MTX 0.3 mg/kg): prevented the development of hind paw swelling
IC50 [8]: > 1000 nM
IC50 [9]: > 1000 nM
IC50 [10]: > 1000 nM
IC50 [11]: > 1000 nM
IC50 [12]: > 1000 nM
IC50 [13]: > 1000 nM
IC50 [14]: > 1000 nM
IC50 [15]: > 1000 nM
IC50 [16]: > 1000 nM
IC50 [17]: > 1000 nM
IC50 [18]: > 1000 nM
IC50 [19]: > 1000 nM
IC50 [20]: > 1000 nM
IC50 [21]: > 1000 nM
IC50 [22]: > 1000 nM
IC50 [23]: > 1000 nM
IC50 [24]: > 1000 nM
IC50 [25]: > 1000 nM
IC50 [26]: > 1000 nM
IC50 [27]: > 1000 nM
IC50 [28]: > 1000 nM

Reference: PMC4286029 (Inflammation Research, 2014)
